Results on 22 compounds are retold here after PubChem BioAssay (NCI).

“And” between values parts separate entries of the source, which are not always exact repeats. Equal values may be shown once.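 Cultured in 96-well plates, cells were exposed to test compound for 48 hours across five concentrations. GI50: concentration for 50% inhibition of growth. TGI denotes the concentration required for complete inhibition of growth.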

Among the test systems are HOP-18 NSCLC; SNB-19 CNS; KM12 colon; SN12C renal; OVCAR-5 ovarian; KM20L2 colon; SF-295 CNS; SF-539 CNS; RPMI-8226 leukemia; HS 578T breast.
Assay in all cases: NCI-60 cell line screen, 48 h

On to `NCCCNCc1c2ccccc2c(CNCCCN)c2ccccc12`, for which the TGI in the assay with HOP-18 NSCLC is 75 µM; with SNB-19 CNS, more than 100 µM; in the assay with KM12 colon it was 43.9 µM; with SN12C renal, 18.5 µM; in the assay with OVCAR-5 ovarian, 62.1 µM; with KM20L2 colon, 53.4 µM. The TGI in the assay on SF-295 CNS was determined as 56.2 µM; with SF-539 CNS it was 28.9 µM.

For `CC1CCCc2c1n[nH]c2CC1CC(=O)NC(=O)C1` (centres undefined), the TGI in the assay on HOP-18 NSCLC, in the assay on SNB-19 CNS, in the assay with KM12 colon, with SN12C renal, with OVCAR-5 ovarian and with RPMI-8226 leukemia was more than 100 µM each time. Besides, the TGI in the assay on KM20L2 colon, in the assay on SF-295 CNS and in the assay with SF-539 CNS was more than 100 µM each time.

Regarding `COC(=O)CCCCCOS(=O)(=O)c1ccc(C)cc1`, the TGI in the assay on HOP-18 NSCLC, with SNB-19 CNS, in the assay on KM12 colon, in the assay with SN12C renal, with OVCAR-5 ovarian and in the assay on KM20L2 colon was more than 100 µM in each case. Also, the TGI with SF-295 CNS and in the assay on SF-539 CNS was more than 100 µM in each case.

Regarding `OCC1CC2C=CCC(C2)C1` (centres undefined), the TGI with HOP-18 NSCLC, in the assay with SNB-19 CNS, in the assay on KM12 colon, in the assay on SN12C renal, in the assay with OVCAR-5 ovarian and in the assay on RPMI-8226 leukemia was more than 100 µM in each case. For the same compound, the TGI in the assay on KM20L2 colon, in the assay with SF-295 CNS and with SF-539 CNS was more than 100 µM each time.

`C[N+]1(CCNP(=S)(NCC[N+]2(C)Cc3c(ccc4c3OCO4)C3C2c2cc4c(cc2C[C@@H]3O)OCO4)NCC[N+]2(C)Cc3c(ccc4c3OCO4)C3C2c2cc4c(cc2C[C@@H]3O)OCO4)Cc2c(ccc3c2OCO3)C2C1c1cc3c(cc1C[C@H]2O)OCO3` (some centres undefined): the GI50 in the assay with HOP-18 NSCLC was 45.2 µM; in the assay on SNB-19 CNS it was 7.66 µM; in the assay with KM12 colon, 1.78 µM; with SN12C renal, 3.84 µM; with KM20L2 colon, 2130 nM; in the assay with SF-295 CNS, 1.43 µM. In the assay on SF-539 CNS, the GI50 is 1.99 µM. Further, the TGI with OVCAR-5 ovarian and with RPMI-8226 leukemia was less than 0.00191 µM in each case.

For the compound `CCCC[C@H](CCc1ccccc1)N(C(=O)OC)N1CCC[C@H]1COC`, the TGI was 53.1 µM in the assay with HOP-18 NSCLC; 30.4 µM with SNB-19 CNS; 35.9 µM in the assay with KM12 colon; 32.7 µM with SN12C renal; 32.4 µM with OVCAR-5 ovarian; more than 100 µM in the assay on RPMI-8226 leukemia. Moreover, the TGI was found to be 30.2 µM in the assay with KM20L2 colon, 33.5 µM with SF-295 CNS and 33 µM in the assay with SF-539 CNS.

As to `CSc1ccc(Cc2cc(C(C)(C)C)cc(C(C)(C)C)c2O)cc1`, the TGI with HOP-18 NSCLC amounted to 33.8 µM; in the assay on SNB-19 CNS it was 29.9 µM; in the assay on KM12 colon, 23.4 µM; in the assay on SN12C renal it was 28.6 µM; in the assay on OVCAR-5 ovarian, 13.2 µM; in the assay on RPMI-8226 leukemia it was 20.8 µM. In addition, the TGI in the assay with KM20L2 colon is 28.2 µM; in the assay with SF-295 CNS, 31.6 µM; with SF-539 CNS it was 31.8 µM.

Regarding `COc1ccc(/C=C/c2cc(OC)c(OC)c(OC)c2)cc1OC`, the TGI in the assay on HOP-18 NSCLC, in the assay on SNB-19 CNS, with KM12 colon, with SN12C renal, with OVCAR-5 ovarian and with RPMI-8226 leukemia was more than 100 µM each time. Also, the TGI with KM20L2 colon, in the assay with SF-295 CNS and with SF-539 CNS was more than 100 µM in each case.

Take `O=[N+]([O-])c1cc(I)cc(/C=N/NS(=O)(=O)c2ccc(F)cc2)c1O`: the TGI in the assay with HOP-18 NSCLC was 53.2 µM; in the assay with SNB-19 CNS it was more than 100 µM; with KM12 colon it was 61.9 µM; in the assay with SN12C renal, 54.1 µM; with OVCAR-5 ovarian, more than 100 µM; in the assay on RPMI-8226 leukemia, 54.8 µM. In addition, the figures for the TGI in the assay on KM20L2 colon, with SF-295 CNS and with SF-539 CNS were more than 100 µM, 98.2 µM and 55.8 µM, respectively.

Turning to `Oc1cccc2cccnc12`, the TGI with HOP-18 NSCLC is more than 100 µM; with SNB-19 CNS, more than 100 µM; in the assay with KM12 colon, more than 100 µM; in the assay on SN12C renal, more than 100 µM; in the assay with OVCAR-5 ovarian, 21.1 µM and > 100 µM; in the assay with RPMI-8226 leukemia, 1.07 µM and 4.31 µM. Besides, the TGI was more than 100 µM in the assay on SF-295 CNS; more than 100 µM in the assay on HS 578T breast; 54.1 µM and 81.1 µM and > 100 µM with SF-539 CNS. Further, the GI50 in the assay with SNB-19 CNS was 23.6 µM and 96.4 µM and 38.9 µM; in the assay on KM12 colon, 3.04 µM and 14 µM and 5.1 µM; in the assay on SN12C renal, 5.56 µM and 29.8 µM and 4.23 µM; with RPMI-8226 leukemia, 0.2 µM; in the assay with HS 578T breast, more than 100 µM; with SF-539 CNS, 4.56 µM and 26.9 µM and 4.11 µM.

For `C=C1C2CC(OC(C)=O)C3(C)C(c4ccoc4)OC(=O)[C@@H](O)[C@]13OC1C[C@H](OC(C)=O)C(C)(C)[C@H](C(O)C(=O)OC)[C@]12C` (some centres undefined), the TGI in the assay with HOP-18 NSCLC, in the assay with SNB-19 CNS, with KM12 colon, with SN12C renal, in the assay with RPMI-8226 leukemia and with KM20L2 colon was more than 100 µM each time. In addition, the TGI in the assay with SF-295 CNS and with SF-539 CNS was more than 100 µM each time.

`O=C(N/C(=C\c1cccc([N+](=O)[O-])c1)c1nc2c3c(ccc2[nH]1)C(=O)c1ccccc1C3=O)c1ccccc1`: the TGI with HOP-18 NSCLC is more than 100 µM; in the assay on SNB-19 CNS it was more than 100 µM; with KM12 colon it was more than 100 µM; in the assay on SN12C renal it was more than 100 µM; in the assay with OVCAR-5 ovarian, 90.4 µM; in the assay on RPMI-8226 leukemia it was more than 100 µM. In addition, the TGI in the assay with KM20L2 colon and in the assay on SF-539 CNS was more than 100 µM in each case.

On to `C/C(=N\NC(=O)c1ccccc1O)c1c(O)cc(C)oc1=O`, for which the TGI in the assay with HOP-18 NSCLC, in the assay with SNB-19 CNS, with KM12 colon, in the assay on SN12C renal, with OVCAR-5 ovarian and with RPMI-8226 leukemia was more than 100 µM each time. Also, the TGI in the assay with KM20L2 colon, in the assay on SF-295 CNS and in the assay with SF-539 CNS was more than 100 µM each time.

On to `CN1C(c2ccccc2)CC(=NO)CC1c1ccccc1` (centres undefined), for which the TGI with SNB-19 CNS was more than 100 µM; in the assay on KM12 colon it was more than 100 µM; with SN12C renal, 58.9 µM and 97.1 µM; with OVCAR-5 ovarian it was more than 100 µM; with RPMI-8226 leukemia, 55.5 µM; in the assay with KM20L2 colon, more than 100 µM. Moreover, the TGI with SF-295 CNS and in the assay on SF-539 CNS was more than 100 µM in each case. The GI50 with KM12 colon was 49.1 µM; in the assay with SN12C renal, 30.6 µM; in the assay with RPMI-8226 leukemia it was 33 µM; in the assay with SF-295 CNS, 44.5 µM.

With `CCCCCCCCCCNC(=S)OC`, the TGI in the assay with HOP-18 NSCLC was more than 100 µM; in the assay on SNB-19 CNS it was more than 100 µM; in the assay with SN12C renal, more than 100 µM; in the assay on RPMI-8226 leukemia, 36.7 µM; in the assay with KM20L2 colon, more than 100 µM; in the assay on SF-295 CNS, more than 100 µM. Moreover, the TGI in the assay on SF-539 CNS is more than 100 µM.

Turning to `Cn1nc(-c2ccccc2)c2c(/C=C/c3ccc(F)cc3)onc2c1=O`, the TGI with HOP-18 NSCLC, in the assay with SN12C renal, in the assay on RPMI-8226 leukemia, with KM20L2 colon and in the assay on SF-539 CNS was more than 100 µM each time.

With `CC(=O)O[C@H]1CC[C@@]2(C)C(=CC[C@H]3C(CC#N)[C@@](C)(C#N)CCC32)C1` (some centres undefined), the TGI in the assay on SNB-19 CNS, with KM12 colon, with SN12C renal, with OVCAR-5 ovarian, in the assay on RPMI-8226 leukemia and with KM20L2 colon was more than 100 µM in each case. Moreover, the TGI in the assay with SF-295 CNS and with SF-539 CNS was more than 100 µM each time.

Take `COc1cccc(/C=C2\N=C(Cl)OC2=O)c1O`: the TGI in the assay on HOP-18 NSCLC, with SNB-19 CNS, in the assay on KM12 colon, in the assay with SN12C renal, in the assay with OVCAR-5 ovarian and in the assay with RPMI-8226 leukemia was more than 100 µM each time. Moreover, the TGI in the assay on KM20L2 colon, with SF-295 CNS and with SF-539 CNS was more than 100 µM each time.

For `Cn1c(=O)nc2n(-c3ccc(F)c(F)c3)c3ccccc3nc-2c1=O`, the TGI with HOP-18 NSCLC was 97.7 µM; in the assay with SNB-19 CNS it was 44.9 µM; in the assay with KM12 colon, more than 100 µM; in the assay with SN12C renal, 53.8 µM; with OVCAR-5 ovarian, 37.5 µM; in the assay on RPMI-8226 leukemia it was 72.2 µM. The TGI with KM20L2 colon was 23.8 µM; in the assay on SF-295 CNS, 32.4 µM; with SF-539 CNS, more than 100 µM.

`CCCC(=O)Oc1ccc(/C=N/NC(N)=S)nc1`: the TGI with HOP-18 NSCLC, with SNB-19 CNS, in the assay with KM12 colon, in the assay with SN12C renal, in the assay with OVCAR-5 ovarian and in the assay with RPMI-8226 leukemia was more than 100 µM each time. The TGI in the assay with KM20L2 colon, with SF-295 CNS and in the assay with SF-539 CNS was more than 100 µM in each case.

Consider `Clc1ccc(-c2nnc(-c3nn(-c4ccccc4)c4nc5ccccc5nc34)o2)cc1`, for which the TGI with HOP-18 NSCLC, with SNB-19 CNS, in the assay on KM12 colon, in the assay on SN12C renal, with OVCAR-5 ovarian and in the assay on RPMI-8226 leukemia was more than 100 µM in each case. In addition, the TGI in the assay on KM20L2 colon, with SF-295 CNS and with SF-539 CNS was more than 100 µM in each case.

Consider `CSc1nc2c(nc(N)n2C2OC(CO)C(O)C(O)C2O)c(=O)[nH]1` (centres undefined), for which the TGI in the assay on HOP-18 NSCLC, in the assay with SNB-19 CNS, with KM12 colon, in the assay on SN12C renal, in the assay with KM20L2 colon and in the assay with SF-295 CNS was more than 100 µM each time. For the same compound, the TGI in the assay on SF-539 CNS is more than 100 µM.
